From PubChem BioAssay (NCI)
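Following 48 hours of exposure in 96-well plates, responses at five concentrations were used to interpolate endpoints linearly. GI50 marks 50% less growth. TGI denotes the concentration required for complete inhibition of growth.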

Experiments:
Assay in all cases: NCI-60 cell line screen, 48 h
[1] = system: HT29 colon
[2] = system: M14 melanoma
[3] = system: MALME-3M melanoma
[4] = system: OVCAR-3 ovarian
[5] = system: OVCAR-4 ovarian
[6] = system: SF-539 CNS
[7] = system: SK-MEL-5 melanoma
[8] = system: UO-31 renal
[9] = system: HL-60(TB) leukemia

| SMILES | TGI [1] [µM] | TGI [2] [µM] | TGI [3] [µM] | TGI [4] [µM] | TGI [5] [µM] | TGI [6] [µM] | TGI [7] [µM] | TGI [8] [µM] | TGI [9] [µM] | GI50 [1] [µM] | GI50 [2] [µM] | GI50 [4] [µM] | GI50 [7] [µM] | GI50 [8] [µM] |
| --- | --- | --- | --- | --- | --- | --- | --- | --- | --- | --- | --- | --- | --- | --- |
| Cc1cc2c(=O)cc(-c3ccc(F)cc3)oc2c(C(=O)O)c1C | > 100 | > 100 | > 100 | > 100 | > 100 | > 100 | > 100 | > 100 |  |  |  |  |  |  |
| Cc1cc(C)c(C(=O)/C=C/c2ccccc2)c(C)c1 | > 100 | 40.3 | 83.5 |  | 81.6 |  | > 100 | > 100 | > 100 |  |  |  |  |  |
| COc1cc2c(cc1OC)[C@@H]([C@H](O)c1ccccc1)NCC2 | > 100 | > 100 | > 100 | > 100 | > 100 | > 100 | > 100 | > 100 | > 100 |  |  |  |  |  |
| CC(C)(C)N=CN(C=C(c1ccccc1)c1ccccc1)C1CCCCC1 | > 100 |  | 35.8 | > 100 | > 100 | > 100 | 31.8 |  |  |  |  |  |  |  |
| O=C(CC1C(=O)Nc2ccccc2S1(=O)=O)Nc1cccc(Cl)c1 (stereo not drawn) | 32.3 | 42.1 | 63.7 | 29.6 | 36.6 | 22.8 | 35.8 | 32.9 | 44.1 |  |  |  |  |  |
| COc1ccc2c(c1)CCN1C3=C(CCC3)C(=O)C[C@@H]21 | > 100 | > 100 | > 100 | > 100 | > 100 | > 100 | > 100 | > 100 | > 100 |  |  |  |  |  |
| CCCCCCCCCCCCCCNCC(OCC)OCC | 11.4 | 27.5 | 32 | 33.7 | 28.6 | 29.7 | 27.9 | 22.9 | 11.5 |  |  |  |  |  |
| Clc1ccc(C2=NOC3C4CCC(C4)C23)cc1 (stereo not drawn) | > 100 | > 100 | > 100 | > 100 | > 100 | > 100 | > 100 | > 100 | > 100 |  |  |  |  |  |
| Clc1cccc2c1OCC1C(c3ccccc3)=NN(c3ccccc3)C21 (stereo not drawn) | > 100 |  | > 100 | > 100 |  |  | 90.7 | > 100 | > 100 |  |  |  |  |  |
| Brc1ccc(C2SCc3nc4ccccc4n32)cc1 (stereo not drawn) | 20.9 | 25.5 | 30.2 | 17 | 27.4 | 34.3 | 12.5 | 32 | 12.4 |  |  |  |  |  |
| Cc1cn2c(/C=N/N=C(N)N)c(-c3ccsc3)nc2s1 | > 100 | 37.3 |  | 13.4 |  |  | 5.19 | > 100 |  | 18.6 | 11.5 | 4.02 | 2.71 | 25.2 |
| CC/C(CC(=O)CCC(=O)Nc1ccc(C)c(C)c1)=N\NC(=O)C(N)=O | > 100 | > 100 | > 100 | > 100 | > 100 | > 100 | > 100 | > 100 | > 100 |  |  |  |  |  |
| C/C=C1\CCC2c3[nH]c4ccccc4c3CCN2C1 (stereo not drawn) | > 100 | 75.8 | > 100 | > 100 | > 100 | > 100 | > 100 | > 100 | > 100 |  |  |  |  |  |
| COC[C@@H](N=CN1CCc2cc(OC)c(OC)cc2C1)C(C)(C)C | > 100 | > 100 | > 100 | > 100 | > 100 | > 100 | > 100 | > 100 | > 100 |  |  |  |  |  |
| O=C(Sc1sc(=S)sc1SC(=O)c1ccccc1)c1ccccc1 | > 100 | > 100 | > 100 | > 100 | > 100 | > 100 | > 100 |  | > 100 |  |  |  |  |  |
| Cc1cc(NS(=O)(=O)c2ccc(NC(=O)COC(=O)c3cccc4c(=O)c5ccccc5[nH]c34)cc2)no1 | > 100 | > 100 | > 100 | > 100 | > 100 | > 100 | > 100 | > 100 | > 100 |  |  |  |  |  |
| COC1=CC(=O)NCCN1 | > 100 | > 100 | > 100 | > 100 | > 100 | > 100 | > 100 | > 100 | 41 |  |  |  |  |  |
| O=C1c2c(c3c4ccccc4[nH]c3c3[nH]c4ccccc4c23)C(=O)N1Cc1ccccc1 | 14.5 | 10.9 | 11.9 | 8.16 | 10.5 | 6.26 | 3.56 | 6.69 |  |  |  |  |  |  |
| COc1cc2ccc(CC(N)=O)cc2cc1OC | > 100 | > 100 | > 100 | > 100 | > 100 | > 100 | > 100 | > 100 |  |  |  |  |  |  |
| O=C(NC(=O)c1cc2cc(Br)cc(Br)c2oc1=O)Oc1ccccc1 | > 100 | > 100 | > 100 | > 100 | > 100 | > 100 | > 100 | > 100 |  |  |  |  |  |  |
